Experimental findings from ChEMBL document CHEMBL3098088, “Synthesis and antimycobacterial activity of novel camphane-based agents” (Bioorg Med Chem Lett, 2014) are described below.

In one series the test system is HEK-293T. Nature of the series: Cytotoxicity against human 293T cells. In kind it is cell-based.
Series [1] deals with Mycobacterium tuberculosis. In words: Antimycobacterial activity against Mycobacterium tuberculosis H37Rv after 45 days. Format: functional.
The nature of series [2]: Selectivity index, ratio of IC50 for human 293T cells to MIC for Mycobacterium tuberculosis H37Rv. In kind it is toxicity, cell-based. Particulars: read-out: Selectivity Index.

In brackets after ≈: the same amount, converted by molar mass. Structures can show the parent of a compound that is named as a salt.

On to `CC(C)[C@H](O)C(=O)N[C@@H]1C[C@H]2CC[C@]1(C)C2(C)C`, for which the IC50 (usually the concentration that gives 50% inhibition) in the series with HEK-293T was above 200 µM. Also, in series [1], the MIC (in general, the lowest concentration found to suppress growth) was determined as 7.89 µM (≈ 2 µg/mL). The selectivity ratio in series [2] is above 25.3.

`CSCC[C@H](O)C(=O)N[C@@H]1C[C@H]2CC[C@]1(C)C2(C)C`: half-maximal inhibition in the series with HEK-293T (IC50) required 172 µM. In series [1], this molecule registered an MIC of 0.17 µM (≈ 0.0485 µg/mL). For the same molecule, the selectivity ratio in series [2] was determined as 1010.

The molecule `CC(C)C[C@H](O)C(=O)N[C@@H]1C[C@H]2CC[C@]1(C)C2(C)C` returned a concentration for half-maximal inhibition (IC50) with HEK-293T of 112 µM. In series [1], this molecule came in with an MIC of 7.48 µM (≈ 2 µg/mL). The selectivity ratio in series [2] amounted to 14.9.

For the molecule `CC[C@@H](CO)NCCN[C@@H](CC)CO` [ETHAMBUTOL HYDROCHLORIDE], in series [1], the MIC came to 7.22 µM.

`CC1(C)[C@@H]2CC[C@@]1(C)[C@H](NC(=O)[C@@H](O)Cc1ccccc1)C2` came in with an IC50 with HEK-293T of 52.8 µM. For the same molecule, the MIC in series [1] turned out to be 0.16 µM (≈ 0.0482 µg/mL). Also, the selectivity ratio in series [2] worked out at 330.

In turn, `CC1(C)[C@@H]2CC[C@@]1(C)[C@H](NC(=O)[C@@H](O)c1ccccc1)C2` displayed an IC50 in the series with HEK-293T of 105 µM. Further, it took 0.17 µM (≈ 0.0489 µg/mL) to inhibit growth in series [1] (MIC). Moreover, the selectivity ratio in series [2] was 619.

Molecule `CC[C@H](C)[C@H](O)C(=O)N[C@@H]1C[C@H]2CC[C@]1(C)C2(C)C` returned an IC50 in the series with HEK-293T of 107 µM. The minimum inhibitory concentration (MIC) in series [1] came out at 7.48 µM (≈ 2 µg/mL). Also, the selectivity ratio in series [2] was 13.6.

`CO[C@H]1/C=C/O[C@@]2(C)Oc3c(C)c(O)c4c(O)c(c(/C=N/N5CCN(C)CC5)c(O)c4c3C2=O)NC(=O)/C(C)=C\C=C\[C@H](C)[C@H](O)[C@@H](C)[C@@H](O)[C@@H](C)[C@H](OC(C)=O)[C@@H]1C` [RIFAMPIN] had an MIC in series [1] of 0.06 µM (≈ 0.0494 µg/mL).
